Test results published in ChEMBL document CHEMBL4118062, “Novel NO-releasing plumbagin derivatives: Design, synthesis and evaluation of antiproliferative activity” (Eur J Med Chem, 2017).

Legend:
HepG2 [1] = assay: Cytotoxicity against human HepG2 cells assessed as growth inhibition at 10 uM after 72 hrs by MTT assay relative to control; assay type: functional; conditions: HepG2, 72 h, read-out: GI
[2] = Drug metabolism in human MDA-MB-231 cells assessed as nitric oxide release at 30 uM after 0.5 to 30 hrs by Griess assay; assay type: ADME, cell-based; conditions: mda-mb-231, 30 µM
HepG2 [3] = assay: Cytotoxicity against human HepG2 cells assessed as growth inhibition after 72 hrs by MTT assay; assay type: functional, cell-based; conditions: HepG2, 72 h
[4] = Selectivity ratio of IC50 for human HepG2 cells to IC50 for human MDA-MB-231 cells; assay type: functional
A549 = assay: Cytotoxicity against human A549 cells assessed as growth inhibition after 72 hrs by MTT assay; assay type: functional, cell-based; conditions: A549, 72 h
MDA-MB-231 [5] = assay: Cytotoxicity against human MDA-MB-231 cells assessed as growth inhibition at 10 uM after 72 hrs by MTT assay relative to control; assay type: functional; conditions: MDA-MB-231, 72 h, read-out: GI
MDA-MB-231 [6] = assay: Cytotoxicity against human MDA-MB-231 cells assessed as growth inhibition after 72 hrs by MTT assay; assay type: functional, cell-based; conditions: MDA-MB-231, 72 h
[7] = Selectivity ratio of IC50 for human A549 cells to IC50 for human MDA-MB-231 cells; assay type: functional
[8] = Chemical stability in PBS at pH 6 at 1000 uM after 3 to 24 hrs by HPLC method; assay type: physicochemical; conditions: buffer, pH 6, 1000 µM
[9] = Drug degradation in PBS at pH 8 at 1000 uM after 24 hrs by HPLC method; assay type: physicochemical; conditions: read-out: Drug degradation
[10] = Drug degradation in PBS at pH 7.4 at 1000 uM after 24 hrs by HPLC method; assay type: physicochemical; conditions: read-out: Drug degradation

| Drug metabolism [2] | SMILES | inhibition of growth at 10 µM (HepG2 [1]) | IC50 (HepG2 [3]) | Ratio IC50 [4] | IC50 (A549) | inhibition of growth at 10 µM (MDA-MB-231 [5]) | IC50 (MDA-MB-231 [6]) | Ratio IC50 [7] | Stability [8] | degraded at 24 h, 1000 µM [9] | degraded at 24 h, 1000 µM [10] |
| --- | --- | --- | --- | --- | --- | --- | --- | --- | --- | --- | --- |
| Metabolite_Detected | CC1=C(C(C)CC(=O)OCC(C)COc2no[n+]([O-])c2S(=O)(=O)c2ccccc2)C(=O)c2c(O)cccc2C1=O (centres undefined) | 91.5% | 3.74 µM | 1.8 | 12.8 µM | 94.4% | 2.11 µM | 6.1 | – | – | – |
| Metabolite_Detected | CC1=C(CC(=O)OCCCCOc2no[n+]([O-])c2S(=O)(=O)c2ccccc2)C(=O)c2c(O)cccc2C1=O | 87.2% | 7.72 µM | 1.5 | > 20 µM | 96.3% | 5.2 µM | >3.8 | – | – | – |
| Metabolite_Detected | CC1=C(CCC(=O)OCCCOc2no[n+]([O-])c2S(=O)(=O)c2ccccc2)C(=O)c2c(O)cccc2C1=O | 95.1% | 6.79 µM | 1.6 | > 20 µM | 96.8% | 4.31 µM | >4.7 | – | – | – |
| Metabolite_Detected | CC1=C(C(C)CC(=O)OCCCOc2no[n+]([O-])c2S(=O)(=O)c2ccccc2)C(=O)c2c(O)cccc2C1=O (centres undefined) | 92.7% | 4.32 µM | 1.8 | 13.9 µM | 95.3% | 2.42 µM | 5.8 | – | – | – |

The next lines start with the molecule.

| SMILES | Drug metabolism [2] | inhibition of growth at 10 µM (HepG2 [1]) | IC50 (HepG2 [3]) | Ratio IC50 [4] | IC50 (A549) | inhibition of growth at 10 µM (MDA-MB-231 [5]) | IC50 (MDA-MB-231 [6]) | Ratio IC50 [7] | Stability [8] | degraded at 24 h, 1000 µM [9] | degraded at 24 h, 1000 µM [10] |
| --- | --- | --- | --- | --- | --- | --- | --- | --- | --- | --- | --- |
| CC1=C(CC(=O)OCCOc2no[n+]([O-])c2S(=O)(=O)c2ccccc2)C(=O)c2c(O)cccc2C1=O | – | 93.3% | 6.11 µM | 1.9 | 18.6 µM | 97.3% | 3.27 µM | – | – | – | – |
| CC1=C(CC(=O)OCC(C)COc2no[n+]([O-])c2S(=O)(=O)c2ccccc2)C(=O)c2c(O)cccc2C1=O (centres undefined) | Metabolite_Detected | 96.6% | 3 µM | 2 | 5.83 µM | 97.3% | 1.51 µM | 3.9 | – | – | – |
| CC1=C(CCC(=O)OCCCCOc2no[n+]([O-])c2S(=O)(=O)c2ccccc2)C(=O)c2c(O)cccc2C1=O | Metabolite_Detected | 95.4% | 3.33 µM | 2.7 | 8.31 µM | 97.6% | 1.24 µM | 6.7 | – | – | – |
| CC(=O)c1cc2c(o1)C(=O)c1ccccc1C2=O [NAPABUCASIN] | – | – | 0.66 µM | 1.8 | 0.74 µM | – | 0.34 µM | 2.2 | – | – | – |
| CC1=CC(=O)c2c(O)cccc2C1=O [PLUMBAGIN] | – | 41% | 10.7 µM | 0.7 | 12.4 µM | 32.8% | 14.2 µM | 0.9 | Stable | > 95% | > 95% |
